Measured values: article PMC5078989, “Targeted inhibition of the COP9 signalosome for treatment of cancer” (Nature Communications, 2016)

Tested on: panel of cancer cell lines
Assay: Cell viability (CellTiter-Glo) dose-response across cancer cell line panel;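 note: after 72 h compound incubation with CellTiter-Glo ATP readout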
Type: cell-based, human
Conditions: Homo sapiens
From the text: Next, we explored the effect of CSN5 inhibition on the viability of cancer cells. To obtain a comprehensive picture, we generated dose–response curves with a CSN5 inhibitor across more than 500 cancer cell lines in a previously described standardized setting[47] (Supplementary Data 1).
A standardized CellTiter-Glo Assay (Promega #G7570) based on the quantification of ATP was applied according to the manufacturer's protocol to measure the amount of viable cells in culture. In brief, cells were seeded into 384-well plates at optimal density for each cell line. After 4 h, compounds were added at different concentrations in growth medium and incubated for another 72 h in a humidifying chamber at 37 °C and 5% CO2. […] EC50 values were calculated from the plot of percentage of inhibition versus inhibitor concentration using the nonlinear regression analysis software Origin 7.5SR6 (OriginLab Corp.).

## COCc1ccccc1NCc1ccc([C@H]2[C@@H](O)CCCc3cncn32)c(-c2ccccc2Cl)c1 [CSN5i-2, (5S,6S)-5-(2′-chloro-5-(((2-(methoxymethyl)phenyl)amino)methyl)-[1,1′-biphenyl]-2-yl)-6,7,8,9-tetrahydro-5H-imidazo[1,5-a]azepin-6-ol]
MOG-G-CCM
  EC50: 3480 nM
MOLM16, MOLM-16
  EC50: 133 nM
MOLM-13, MOLM-13
  EC50: 262 nM
MOLT-13, MOLT-13
  EC50: 217 nM
MOLT-16, MOLT-16
  EC50: 341 nM
MSTO-211H
  EC50: 1350 nM
MV4-11, MV-4-11
  EC50: 454 nM
Malme-3M
  EC50: 2060 nM
MeWo
  EC50: 472 nM
Mono-Mac-1, MONO-MAC-1
  EC50: 747 nM
NALM-6, NALM-6
  EC50: 209 nM
NB1, NB-1
  EC50: 531 nM
NB-4, NB-4
  EC50: 212 nM
NCI-H23, NCI-H23
  EC50: 347 nM
NCI-H28, NCI-H28
  EC50: 4700 nM
NCI-H82, NCI-H82
  EC50: 5190 nM
NCI-H146, NCI-H146
  EC50: 5250 nM
NCI-H211, NCI-H211
  EC50: 1730 nM
NCI-H322, NCI-H322
  EC50: 2540 nM
NCI-H441, NCI-H441
  EC50: 3410 nM
NCI-H460, NCI-H460
  EC50: 8610 nM
NCI-H520, NCI-H520
  EC50: 10800 nM
NCI-H647, NCI-H647
  EC50: > 30000 nM
NCI-H650, NCI-H650
  EC50: > 30000 nM
NCI-H661, NCI-H661
  EC50: 457 nM
NCI-H747, NCI-H747
  EC50: 733 nM
NCI-H810, NCI-H810
  EC50: 754 nM
NCI-H838, NCI-H838
  EC50: 1000 nM
NCI-H841, NCI-H841
  EC50: 1040 nM
NCI-H1048, NCI-H1048
  EC50: 1920 nM
NCI-H1155, NCI-H1155
  EC50: 653 nM
NCI-H1299, NCI-H1299
  EC50: 1520 nM
NCI-H1339, NCI-H1339
  EC50: 1130 nM
NCI-H1341
  EC50: 2010 nM
NCI-H1355, NCI-H1355
  EC50: 1280 nM
NCI-H1373, NCI-H1373
  EC50: 9300 nM
NCI-H1437, NCI-H1437
  EC50: 17700 nM
NCI-H1568, NCI-H1568
  EC50: 434 nM
NCI-H1650, NCI-H1650
  EC50: 1820 nM
NCI-H1666, NCI-H1666
  EC50: 11900 nM
NCI-H1703, NCI-H1703
  EC50: 1640 nM
NCI-H1755, NCI-H1755
  EC50: 967 nM
NCI-H1792, NCI-H1792
  EC50: 2270 nM
NCI-H1915, NCI-H1915
  EC50: 1270 nM
NCI-H1975, NCI-H1975
  EC50: 2830 nM
NCI-H2023, NCI-H2023
  EC50: 518 nM
NCI-H2030, NCI-H2030
  EC50: 559 nM
NCI-H2073, NCI-H2073
  EC50: 4450 nM
NCI-H2087, NCI-H2087
  EC50: 1120 nM
NCI-H2110, NCI-H2110
  EC50: 1760 nM
NCI-H2122, NCI-H2122
  EC50: 893 nM
NCI-H2126, NCI-H2126
  EC50: > 30000 nM
NCI-H2170, NCI-H2170
  EC50: 17500 nM
NCI-H2171, NCI-H2171
  EC50: 1340 nM
NCI-H2172, NCI-H2172
  EC50: 4890 nM
NCI-H2228, NCI-H2228
  EC50: 4930 nM
NCI-H2286, NCI-H2286
  EC50: 364 nM
NCI-H2444, NCI-H2444
  EC50: 322 nM
NCI-H2452, NCI-H2452
  EC50: 1940 nM
NCI-H3255, NCI-H3255
  EC50: > 30000 nM
NCI-N87, NCI-N87
  EC50: 106 nM
NO36
  EC50: 2000 nM
NOMO-1, NOMO-1
  EC50: 1640 nM
NUGC-3, NUGC-3
  EC50: 6500 nM
OCI-AML-3, OCI-AML3
  EC50: 1180 nM
OCI-AML-5, OCI-AML5
  EC50: 677 nM
OCI-Ly3, OCI-LY3
  EC50: 404 nM
ONCO-DG-1, ONCO-DG-1
  EC50: 1110 nM
OUMS-23, OUMS-23
  EC50: 747 nM
OV56, OV56
  EC50: 401 nM
OVCAR-3, NIH:OVCAR-3
  EC50: 523 nM
OVCAR-4, OVCAR-4
  EC50: 1540 nM
OVISE
  EC50: 29100 nM
P3HR-1, P3HR-1
  EC50: 560 nM
P12-Ichikawa
  EC50: 279 nM
P31-FUJ, P31/FUJ
  EC50: 690 nM
PANC-1, PANC-1
  EC50: 477 nM
PANC-03-27, Panc 03.27
  EC50: 679 nM
PC-3, PC-3
  EC50: 5890 nM
PC-14, PC-14
  EC50: 8990 nM
PE/CA-PJ49
  EC50: 970 nM
PF-382, PF-382
  EC50: 262 nM
PK-1, PK-1
  EC50: 2710 nM
PK-45H
  EC50: 1860 nM
PK-59, PK-59
  EC50: 1760 nM
PL45, PL45
  EC50: 722 nM
PL-21, PL-21
  EC50: 684 nM
PLC-PRF-5, PLC/PRF/5
  EC50: 6990 nM
PSN1, PSN1
  EC50: 1680 nM
PaTu 8902, PA-TU-8902
  EC50: 2330 nM
PaTu 8988t, PA-TU-8988T
  EC50: 5870 nM
Panc 04.03, Panc 04.03
  EC50: 6710 nM
Panc1005, Panc 10.05
  EC50: 308 nM
QGP-1, QGP-1
  EC50: > 30000 nM
RCM-1, RCM-1
  EC50: 2700 nM
RD
  EC50: 1830 nM
RD-ES
  EC50: 839 nM
RERF-LC-AI
  EC50: 581 nM
RERF-LC-MS
  EC50: 1560 nM
RKN
  EC50: 1130 nM
RKO
  EC50: 2720 nM
RMUG-S
  EC50: > 30000 nM
RPMI 8402, RPMI-8402
  EC50: 633 nM
RPMI-7951, RPMI-7951
  EC50: 16000 nM
RT-112, RT-112
  EC50: 5730 nM
RVH-421, RVH-421
  EC50: 2430 nM
Rh41, RH-41
  EC50: 952 nM
SCC-25, SCC-25
  EC50: 9930 nM
SCaBER
  EC50: 3550 nM
SEM
  EC50: 728 nM
SF8657
  EC50: > 30000 nM
SF-268, SF-268
  EC50: 1880 nM
SH-4, SH-4
  EC50: 426 nM
SH-10-TC
  EC50: 1390 nM
SH-SY5Y
  EC50: 3480 nM
SJRH30, SJRH30
  EC50: 1930 nM
SK-CO-1, SK-CO-1
  EC50: 1220 nM
SK-ES1, SK-ES-1
  EC50: 543 nM
SK-HEP1, SK-HEP-1
  EC50: 979 nM
SK-LU-1, SK-LU-1
  EC50: 3370 nM
SK-MEL3, SK-MEL-3
  EC50: 20000 nM
SK-MEL-2, SK-MEL-2
  EC50: 1940 nM
SK-MEL-5, SK-MEL-5
  EC50: 1590 nM
SK-MEL-28, SK-MEL-28
  EC50: 419 nM
SK-MEL-30, SK-MEL-30
  EC50: 2280 nM
SK-MEL-31
  EC50: 5350 nM
SK-N-SH
  EC50: 2610 nM
SK-OV-3, SK-OV-3
  EC50: > 30000 nM
SKM-1, SKM-1
  EC50: 487 nM
SKNBE2, SK-N-BE(2)
  EC50: 455 nM
SNB-19, SNB-19
  EC50: 2200 nM
SNG-M
  EC50: 370 nM
SNU878, SNU-878
  EC50: 6720 nM
SNU-8
  EC50: 601 nM
SNU-16, SNU-16
  EC50: 2080 nM
SNU-61
  EC50: 1990 nM
SNU-81
  EC50: 733 nM
SNU-175
  EC50: 806 nM
SNU-213
  EC50: 4010 nM
SNU-349
  EC50: 3550 nM
SNU-387, SNU-387
  EC50: 666 nM
SNU-398, SNU-398
  EC50: 277 nM
SNU-410
  EC50: 21100 nM
SNU-423, SNU-423
  EC50: 1310 nM
